Molecules are shown by their SMILES.

T1 sequence (P14902 whole entry): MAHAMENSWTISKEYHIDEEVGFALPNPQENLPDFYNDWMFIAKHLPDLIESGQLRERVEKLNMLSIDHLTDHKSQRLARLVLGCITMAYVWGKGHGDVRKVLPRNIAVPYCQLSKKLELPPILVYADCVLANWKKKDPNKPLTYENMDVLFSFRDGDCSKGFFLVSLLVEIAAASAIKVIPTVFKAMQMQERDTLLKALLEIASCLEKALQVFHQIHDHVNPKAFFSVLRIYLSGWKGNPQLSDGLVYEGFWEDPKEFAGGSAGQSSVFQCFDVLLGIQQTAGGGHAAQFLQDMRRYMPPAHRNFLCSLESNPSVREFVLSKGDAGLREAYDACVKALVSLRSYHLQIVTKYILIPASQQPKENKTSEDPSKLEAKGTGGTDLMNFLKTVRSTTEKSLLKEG

The assay concerns the target T1, IDO (IFNγ-treated Hela cells) (Homo sapiens, UniProt P14902).
T1 construct: endogenous in cells; host or cells: Hela cells treated with IFNγ (10 ng/ml)
Briefly: IDO Kynurenine Assay with Hela Cells. The assay is classed as cell-based. The note with it: IFNγ 10 ng/ml, 20 hours incubation, kynurenine absorbance at 490 nm, read-out: Hela Cells LLE_IDO_ABS_DR (IC50). The method, then: IDO Kynurenine Assay with Hela Cells
Hela cells were seeded at 30,000 cells per well in 40 ul RPMI/phenol red free media contains 10% FBS in a 384-well black wall clear bottom tissue culture plate (Matrix Technologies LLC). 270 nl of certain concentration of compound was then added to each well using ECHO liquid handling systems. 40 ul of IFNγ (R&D, 285-IF-100) at final concentration of 10 ng/ml was then added to column 2-24 with media to column 1 as control. The cells were incubated for 20 hours in 37° C. incubator with 5% CO2.
The compound treatments were stopped by adding trichloroacetic acid (Sigma-Aldrich) to a final concentration at 0.2%. The cell plate was further incubated at 50° C. for 30 minute. The equal volume supernatant (20 uL) and 0.2% (w/v) Ehrlich reagent (4-dimethylaminobenzaldehyde, Sigma-Aldrich) in glacial acetic acid were mixed in a new clear bottom 384-well plate. This plate was then incubated at room temperature for 30 minute. The absorbance at 490 nm was measured on Envision plate reader.
Compound IC50 values were calculated using the counts of no IFNγ control as one hundred percent inhibition, and counts of no compound but DMSO treatment as zero percent inhibition.
For `N#Cc1ccc(CC(=O)Nc2cc(-c3ccccc3-c3nnn[nH]3)ccc2N2CC3CC2CN3Cc2ccccc2)cc1` (centres unmarked) [Example 79], the IC50 was found to be 2510 nM.
With `CC(C)CN(CC(C)C)c1ccc(-c2ccccc2-c2nnn[nH]2)cc1NC(=O)Cc1ccc(C#N)cc1` [Example 43] the figure was 5.09 nM.
In the case of `COc1ccc(CC(=O)Nc2cc(-c3ccccc3-c3nnn[nH]3)ccc2N(CC(C)C)CC(C)C)c(C(F)(F)F)c1` [Example 18, N-(4-(diisobutylamino)-2′-(1H-tetrazol-5-yl)biphenyl-3-yl)-2-(4-methoxy-2-(trifluoromethyl)phenyl)acetamide], the IC50 came to 40 nM.
Take `CC(C)CN(CC(C)C)c1ccc(-c2ccccc2-c2nnn[nH]2)cc1NC(=O)Cc1ccccc1Cl` [Example 25]: the IC50 came to 20 nM.
Consider `CC(C)CN(CC(C)C)c1ccc(-c2ccccc2-c2nnn[nH]2)cc1NC(=O)CC1CC1` [Example 33], for which the IC50 worked out at 500 nM.
With `CC(C)CN(CC(C)C)c1ccc(-c2ccccc2-c2nnn[nH]2)cc1NC(=O)Cc1ccccn1` [Example 30] the figure was 300 nM; with `CC(C)CN(CC(C)C)c1ccc(-c2ccccc2-c2nnn[nH]2)cc1NC(=O)Cc1ccc(C(F)(F)F)cc1` [Example 29], 60 nM.
With `CC(C)CN(CC(C)C)c1ccc(-c2ccccc2-c2nnn[nH]2)cc1NC(=O)CS(=O)(=O)c1ccccc1` [Example 32] the figure was 4010 nM; with `CC(C)CN(CC(C)C)c1ccc(-c2ccccc2-c2nnn[nH]2)cc1NC(=O)Cc1cncc(Br)c1` [Example 44], 80 nM.
Consider `CC(C)(C)CC(=O)Nc1cc(-c2ccccc2-c2nnn[nH]2)ccc1N1CC2CC1CN2Cc1ccccc1` (centres unmarked) [Example 82], for which the IC50 is 3610 nM.
Turning to `CC(C)CN(CC(C)C)c1ccc(-c2ccccc2-c2nnn[nH]2)cc1NC(=O)COc1cccnc1` [Example 42], the IC50 came to 500 nM.
With `CC(C)CN(CC(C)C)c1ccc(-c2ccccc2-c2nnn[nH]2)cc1NC(=O)Cc1ccccc1F` [Example 19, N-(4-(diisobutylamino)-2′-(1H-tetrazol-5-yl)biphenyl-3-yl)-2-(2-fluorophenyl)acetamide] the figure was 20 nM; with `CC(C)CN(CC(C)C)c1ccc(-c2ccccc2-c2nnn[nH]2)cc1NC(=O)Cc1ccc(C(C)C)cc1` [Example 13, N-(4-(diisobutylamino)-2′-(1H-tetrazol-5-yl)biphenyl-3-yl)-2-(4-isopropylphenyl) acetamide], 1330 nM; with `C[C@@H]1C[C@H](C)CN(c2ccc(-c3ccccc3-c3nnn[nH]3)cc2NC(=O)Cc2ccc(F)cc2)C1` [Example 22, N-(4-(cis-3,5-Dimethylpiperidin-1-yl)-2′-(1H-tetrazol-5-yl)-[1,1′-biphenyl]-3-yl)-2-(4-fluorophenyl)acetamide], 1190 nM.
Regarding `Cc1ccc(CC(=O)Nc2cc(-c3ccccc3-c3nnn[nH]3)ccc2N(CC(C)C)CC(C)C)c(F)c1` [Example 20, N-(4-(diisobutylamino)-2′-(1H-tetrazol-5-yl)biphenyl-3-yl)-2-(2-fluoro-4-methylphenyl)acetamide], the IC50 came out at 9.11 nM.
For `CC(C)CN(Cc1ccccc1)c1ccc(-c2ccccc2-c2nnn[nH]2)cc1NC(=O)Cc1ccccc1C(F)(F)F` [Example 3, N,N-(4-(Benzyl(isobutyl)amino)-2′-(1H-tetrazol-5-yl)biphenyl-3-yl)-2-(2-(trifluoromethyl)phenyl)acetamide], the IC50 came to 20 nM.
With `Cc1ccc(CC(=O)Nc2cc(-c3cc(F)ccc3C(=O)O)ccc2N(CC(C)C)CC(C)C)cc1` [Example 1, 4′-(Diisobutylamino)-5-fluoro-3′-(2-p-tolylacetamido)biphenyl-2-carboxylic acid], the IC50 is 10 nM.
With `CC(C)CN(c1ccc(-c2ccccc2-c2nnn[nH]2)cc1NC(=O)Cc1ccccc1F)C1CCCCC1` [Example 9, N-(4-(cyclohexyl(isobutyl)amino)-2′-(1H-tetrazol-5-yl)biphenyl-3-yl)-2-(2-fluorophenyl)acetamide] the figure was 20 nM; with `Cc1ccc(CC(=O)Nc2cc(-c3ccccc3-c3nnn[nH]3)ccc2N2CCC(F)(F)C2)cc1` [Example 75], 1810 nM.
With `CC(C)CN(CC(C)C)c1ccc(-c2ccccc2-c2nnn[nH]2)cc1NC(=O)Cc1cccnc1` [Example 31] the figure was 70 nM.
Turning to `O=C(Cc1ccccc1C(F)(F)F)Nc1cc(-c2ccccc2-c2nnn[nH]2)ccc1-n1cccn1` [Example 76], the IC50 turned out to be 280 nM.
In the case of `COCCOCC(=O)Nc1cc(-c2ccccc2-c2nnn[nH]2)ccc1N(CC(C)C)CC(C)C` [Example 41], the IC50 was determined as 1830 nM.
With `COc1ccc(CC(=O)Nc2cc(-c3ccccc3-c3nnn[nH]3)ccc2N(CC(C)C)CC(C)C)cc1` [Example 11, N-(4-(diisobutylamino)-2′-(1H-tetrazol-5-yl)biphenyl-3-yl)-2-(4-methoxyphenyl)acetamide], the IC50 amounted to 4.05 nM.
`CC(C)CN(CC(C)C)c1ccc(-c2ccccc2-c2nnn[nH]2)cc1NC(=O)Cc1cccc(F)c1` [Example 16, N-(4-(diisobutylamino)-2′-(1H-tetrazol-5-yl)biphenyl-3-yl)-2-(3-fluorophenyl)acetamide]: the IC50 was found to be 8.9 nM.
With `CC(C)CN(CC(C)C)c1ccc(-c2ccccc2-c2nnn[nH]2)cc1NC(=O)CN1CCOCC1` [Example 38] the figure was 2520 nM.
With `CC(C)CN(CC(C)C)c1ccc(-c2ccccc2-c2nnn[nH]2)cc1NC(=O)Cc1cccc2ccccc12` [Example 24] the figure was 80 nM; with `O=C(Nc1cc(-c2ccccc2-c2nnn[nH]2)ccc1N1CC2CC1CN2Cc1ccccc1)[C@H](O)c1ccccc1` (some centres unmarked) [Example 83], 8920 nM; with `Cc1nc(CC(=O)Nc2cc(-c3ccccc3-c3nnn[nH]3)ccc2N(CC(C)C)CC(C)C)cs1` [Example 36], 400 nM.
Take `CC(C)CN(CC(C)C)c1ccc(-c2ccccc2-c2nnn[nH]2)cc1NC(=O)Cc1ccc(Oc2ccccc2)cc1` [Example 34]: the IC50 was determined as 250 nM.
Take `Cc1ccc(CC(=O)Nc2cc(-c3ccccc3C(=O)O)ccc2N(CC(C)C)CC(C)C)cc1` [Example 4, 4′-(diisobutylamino)-3′-(2-p-tolylacetamido) biphenyl-2-carboxylic acid]: the IC50 stood at 10 nM.
In the case of `Cc1ccc(OCC(=O)Nc2cc(-c3ccccc3-c3nnn[nH]3)ccc2N(CC(C)C)CC(C)C)cc1` [Example 40], the IC50 was 160 nM.
As for `COc1ccc(OC(=O)Nc2cc(-c3ccccc3-c3nnn[nH]3)ccc2N(CC(C)C)CC(C)C)cc1F` [Example 52, 3-fluoro-4-methoxyphenyl (4-(diisobutylamino)-2′-(1H-tetrazol-5-yl)-[1,1′-biphenyl]-3-yl) carbamate], the IC50 amounted to 6560 nM.
Regarding `Cc1ccc(CC(=O)Nc2cc(-c3ccccc3-c3nnn[nH]3)ccc2-n2cccn2)cc1` [Example 46, 2-(4-methylphenyl)-N-[2-(1H-pyrazol-1-yl)-5-[2-(1H-1,2,3,4-tetrazol-5-yl)phenyl]phenyl]acetamide], the IC50 was 230 nM.
In the case of `CC(C)CN(Cc1ccccc1)c1ccc(-c2ccccc2-c2nnn[nH]2)cc1NC(=O)Cc1ccc(C#N)cc1` [Example 54], the IC50 is 10 nM.
With `CC(C)CN(CC(C)C)c1ccc(-c2ccccc2-c2nnn[nH]2)cc1NC(=O)CC#N` [Example 23] the figure was 280 nM; with `CC(C)CN(CC(C)C)c1ccc(-c2ccccc2-c2nnn[nH]2)cc1NC(=O)Cc1cccc(C(F)(F)F)c1` [Example 27], 160 nM.
With `CC(C)CN(CC(C)C)c1ccc(-c2ccccc2-c2nnn[nH]2)cc1NC(=O)Oc1ccc(OCc2ccccc2)cc1` [Example 53, 4-(benzyloxy)phenyl (4-(diisobutylamino)-2′-(1H-tetrazol-5-yl)-[1,1′-biphenyl]-3-yl)carbamate] the figure was 3250 nM.
With `Cc1noc(C)c1CC(=O)Nc1cc(-c2ccccc2-c2nnn[nH]2)ccc1N(CC(C)C)CC(C)C` [Example 37] the figure was 1280 nM; with `CC(C)CN(CC(C)C)c1ccc(-c2ccccc2-c2nnn[nH]2)cc1NC(=O)CC(F)(F)F` [Example 35], 270 nM.
On to `CC(C)CN(CC(C)C)c1ccc(-c2ccccc2-c2nnn[nH]2)cc1NC(=O)Oc1ccc(Cl)cc1` [Example 45, 4-Chlorophenyl (4-(diisobutylamino)-2′-(1H-tetrazol-5-yl)-[1,1′-biphenyl]-3-yl)carbamate], for which the IC50 was 3900 nM.
With `CC(C)CN(Cc1ccccc1)c1ccc(-c2ccccc2-c2nnn[nH]2)cc1NC(=O)CC(C)(C)C` [Example 47, N-(4-(Benzyl(isobutyl)amino)-2′-(2H-tetrazol-5-yl)biphenyl-3-yl)-3,3-dimethylbutanamide] the figure was 470 nM; with `COc1ccc(OC(=O)Nc2cc(-c3ccccc3-c3nnn[nH]3)ccc2N(CC(C)C)CC(C)C)cc1` [Example 50, 4-methoxyphenyl (4-(diisobutylamino)-2′-(1H-tetrazol-5-yl)-[1,1′-biphenyl]-3-yl)carbamate], 120 nM.
With `CC(C)CN(CC(C)C)c1ccc(-c2ccccc2-c2nnn[nH]2)cc1NC(=O)Oc1ccc2c(c1)OCO2` [Example 51, benzo[d][1,3]dioxol-5-yl (4-(diisobutylamino)-2′-(1H-tetrazol-5-yl)-[1,1′-biphenyl]-3-yl) carbamate] the figure was 3910 nM; with `CC(C)(C)CC(=O)Nc1cc(-c2ccccc2-c2nnn[nH]2)ccc1-n1cccn1` [Example 78], 4440 nM.

Usually IC50 stands for the concentration that gives 50% inhibition.

Source of the values: patent US9895330B2, “IDO inhibitors” (BRISTOL-MYERS SQUIBB COMPANY, priority 2013, dated 2018).
